Experiments:
[1] = target: T1, human CB1R (Homo sapiens, UniProt P21554); experiment: CB1R agonistic activity, CRE-luciferase reporter without CP-55,940; format: cell-based; conditions: HEK293T-CB1-CRE-luc cells, compound alone
T1 construct: expressed in transfected cells; host or cells: HEK293T (HEK293T-CB1-CRE-Luc)
Experimental: The determination of CB1R activity was carried out using the HEK293T-CB1-CRE-Luc cells stably transfected with the human CB1R cDNA, and a construction of CRE-Luc that contains as promoter six consensus cAMP responsive elements (CRE) linked to firefly luciferase reporter gene. The increase in cAMP levels activates the CRE-Luc system, inducing the expression of the luciferase reporter gene. Briefly, HEK293T-CB1-CRE-Luc cells were cultured in supplemented DMEM (Sigma) medium containing 10% FBS (Gibco) and 1% antibiotics penicillin/streptomycin (Sigma) (DMEM complete medium) and maintained at 37° C in a humidified atmosphere of 5% CO2. […] Luciferase activity was measured using a TriStar2 Berthold/LB942 multimode reader (Berthold Technologies) following the instructions of the luciferase assay kit (Promega, Madison, Wl, USA). The RLUs (relative light units) were calculated and: (i) For allosteric activity, results were expressed as percentage of CB1R activity normalized to 100% stimulation induced by 2.5 µM CP-55,940, according to the following formula: Percentage of CB1R activity = 100 * (T - B) / (C - B); where T are the RLUs of the cells treated with the fractions and 2.5 µM CP-55,940; C are the RLUs of the cells treated with CP-55,940 alone, and B are the RLUs of the cells without stimulus. […]

[2] = target: T1, human CB1R; experiment: CB1R positive allosteric modulation (PAM) activity, CRE-luciferase reporter in the presence of the orthosteric agonist CP-55,940; format: cell-based; conditions: for percentage of CB1R activity normalized to 100% stimulation induced by 2.5 µM CP-55,940 alone: HEK293T-CB1-CRE-luc cells, tested at 1, 5, 10 and 25 µg/mL in the presence of 2.5 µM CP-55,940, CB1R activity ≥ 150% is considered CB1R PAM activity; for CB1R PAM activity: result in words, HEK293T-CB1-CRE-luc cells with 2.5 µM CP-55,940
Experimental: The determination of CB1R activity was carried out using the HEK293T-CB1-CRE-Luc cells stably transfected with the human CB1R cDNA, and a construction of CRE-Luc that contains as promoter six consensus cAMP responsive elements (CRE) linked to firefly luciferase reporter gene. The increase in cAMP levels activates the CRE-Luc system, inducing the expression of the luciferase reporter gene. Briefly, HEK293T-CB1-CRE-Luc cells were cultured in supplemented DMEM (Sigma) medium containing 10% FBS (Gibco) and 1% antibiotics penicillin/streptomycin (Sigma) (DMEM complete medium) and maintained at 37° C in a humidified atmosphere of 5% CO2. The day before the assay 10^4 cells per well were seeded in 96 well-plates and incubated overnight. For determining CB1R positive allosteric modulation (PAM) activity, HEK293T-CB1-CRE-Luc cells were treated with increasing concentrations of the fractions for 30 min and then treated with the CB1R orthosteric agonist CP-55,940 at 2.5 µM. For CB1R agonistic activity, HEK293T-CB1-CRE-Luc cells were treated with increasing concentrations of the fractions. CP-55,940 alone, a CB1R orthosteric agonist, was used at 2.5 µM as positive control of cAMP signaling pathway activated by a CB1R-dependent orthosteric mechanism; and cells without stimulus were used as negative control. In both assays, after 6 h of stimulation, cells were washed twice with PBS 1X and lysed in 100 µL lysis buffer containing 25 mM Tris-phosphate (pH 7.8), 8 mM MgCl2, 1 mM DTT, 1% Triton X-100, and 7% glycerol during 15 min at room temperature in a horizontal shaker. Luciferase activity was measured using a TriStar2 Berthold/LB942 multimode reader (Berthold Technologies) following the instructions of the luciferase assay kit (Promega, Madison, Wl, USA). The RLUs (relative light units) were calculated and: (i) For allosteric activity, results were expressed as percentage of CB1R activity normalized to 100% stimulation induced by 2.5 µM CP-55,940, according to the following formula: Percentage of CB1R activity = 100 * (T - B) / (C - B); where T are the RLUs of the cells treated with the fractions and 2.5 µM CP-55,940; C are the RLUs of the cells treated with CP-55,940 alone, and B are the RLUs of the cells without stimulus. CB1R activity ≥ 150% was considered CB1R PAM activity (ii) For the CB1R agonistic activity, results were expressed as a fold change over non-stimulated cells according to the following formula: Fold change of CB1R activity = T / B; where T are RLUs of the cells treated with the fractions and B are the RLUs of the cells without stimulus. CB1R activity ≥ 2.5-fold increase is considered CB1R agonistic activity.

T1 sequence (P21554 whole entry): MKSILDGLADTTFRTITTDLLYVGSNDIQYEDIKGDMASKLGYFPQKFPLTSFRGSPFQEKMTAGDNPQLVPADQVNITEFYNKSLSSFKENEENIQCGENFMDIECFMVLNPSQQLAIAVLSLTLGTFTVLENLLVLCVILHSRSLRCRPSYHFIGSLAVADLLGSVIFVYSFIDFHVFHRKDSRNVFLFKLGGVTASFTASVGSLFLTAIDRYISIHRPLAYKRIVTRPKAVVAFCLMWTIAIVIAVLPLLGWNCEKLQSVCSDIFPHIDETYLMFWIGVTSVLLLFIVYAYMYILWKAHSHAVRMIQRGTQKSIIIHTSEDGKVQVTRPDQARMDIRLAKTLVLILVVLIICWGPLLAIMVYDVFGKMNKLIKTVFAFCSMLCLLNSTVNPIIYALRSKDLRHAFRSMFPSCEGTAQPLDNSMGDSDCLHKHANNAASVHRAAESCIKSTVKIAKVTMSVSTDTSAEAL

Row | Structure (SMILES) | CB1R agonistic activity on cAMP signaling pathway ([1]; at high concentrations, ≥ 2.5-fold increase over non-stimulated cells is considered agonistic) | CB1R agonistic activity on cAMP signaling pathway ([1]; at the lower tested concentration) | percentage of CB1R activity normalized to 100% stimulation induced by 2.5 µM CP-55,940 alone [2] | CB1R PAM activity [2] | CB1R PAM activity ([2]; listed as Agathadiol)
1 | C=C1CC[C@H]2[C@@](C)(CO)CCC[C@]2(C)[C@H]1CC/C(C)=C/CO [agathadiol, (E)-5-[(1S,4aR,5S,8aR)-5-(hydroxymethyl)-5,8a-dimethyl-2-methylidene-3,4,4a,6,7,8-hexahydro-1H-naphthalen-1-yl]-3-methylpent-2-en-1-ol] | medium CB1R agonistic activity | residual | over 1000% | clear CB1R PAM activities at a range of concentrations | increasingly stronger bioactive effect as PAM of CB1R with increasing concentrations
2 | COc1cc([C@H]2c3cc4c(cc3C[C@@H]3COC(=O)[C@H]32)OCO4)cc(OC)c1OC [deoxypodophyllotoxin, (5S,5aS,8aS)-5-(3,4,5-trimethoxyphenyl)-5a,8,8a,9-tetrahydro-5H-[2]benzofuro[5,6-f][1,3]benzodioxol-6-one] | – | – | over 1000% | clear CB1R PAM activities at a range of concentrations | –

From patent publication EP4167978B1, “USE OF JUNIPER (JUNIPERUS COMMUNIS) BERRIES EXTRACT, DEOXYPODOP[…] […], AS POSITIVE ALLOSTERIC MODULATORS OF CANNABINOID TYPE 1 RECEPTOR FOR TREATING NEUROPATHIC PAIN AND IN[…]” (Vivacell Biotechnology Espana S.L., priority 2020, dated 2022)
